Reference: patent US20040156742A1, “Synergistically-effective cyclohexylethan-1-yl ester mixtures as malodour counteractants as measured physiologically and psychometrically and methods for using same” (priority 2003, published 2004)

Assay: Adaptation curves: % odour pulses correctly identified versus inter-stimulus interval (FIGS. 9C, 9D)
Format: in vivo, human
Details: pulse length 200 microseconds
From the text: as it applies to individual malodour molecules and individual fragrance molecules is set forth in Jacob et al., “Psychometric Evaluation of Responses to Pleasant and Malodour Stimulation in Human Subjects; Adaptation, Dose Response and Gender Differences”, Int. J. Psychophysiology, (2003). An additional discussion of the model as it applies to olfaction is set forth in Wang et al., “The correlation between physiological and psychological responses to odor stimulation in human subjects” Clinical Neurophysiology 113 (2002) 542-551 at page 546.
wherein Z is the percentage of odour pulses correctly identified;
Y is the pulse duration, or “pulse length” measured in units of microseconds; and
X is the inter-stimulus interval, “ISI”, measured in units of seconds.
FIG. 9C is a set of adaptation curves for the malodour, n-butyric acid, with the vertical axis being the “Z” axis, indicated by reference numeral 90C and the horizontal axis being the “X” axis indicated by reference numeral 92C. The graph indicated by reference numeral 97C and data points therefor 970C is for a pulse length of 35 microseconds. The graph indicated by reference numeral 96C and data points therefor 960C is for a pulse length of 50 microseconds. The graph indicated by reference numeral 95C and data points therefor 950C is for a pulse length of 75 microseconds. […]

Structure (SMILES)	percentage of odour pulses correctly identified, Z (point 990D on curve 93D: inter-stimulus interval X1=15 seconds, FIG. 9D)	percentage of odour pulses correctly identified, Z (point 990C on curve 93C: inter-stimulus interval X1=12 seconds, FIG. 9C)
CCCCCOC(C)=O [amyl acetate]	54%	
CCCC(=O)O [n-butyric acid]		75%
